Values of other authors, collected in patent US10639299B2, “Calcium sensing receptors, ligands, compositions, and methods of use” (Georgia State University Research Foundation, Inc., priority 2016, dated 2020).

Legend:
[1] = molecular target: T1, CaSR (Bos taurus, UniProt P35384); conditions: X. laevis oocytes; cited from earlier work
T1 construct: host or cells: X. laevis oocytes
T1 sequence (P35384 20-1085): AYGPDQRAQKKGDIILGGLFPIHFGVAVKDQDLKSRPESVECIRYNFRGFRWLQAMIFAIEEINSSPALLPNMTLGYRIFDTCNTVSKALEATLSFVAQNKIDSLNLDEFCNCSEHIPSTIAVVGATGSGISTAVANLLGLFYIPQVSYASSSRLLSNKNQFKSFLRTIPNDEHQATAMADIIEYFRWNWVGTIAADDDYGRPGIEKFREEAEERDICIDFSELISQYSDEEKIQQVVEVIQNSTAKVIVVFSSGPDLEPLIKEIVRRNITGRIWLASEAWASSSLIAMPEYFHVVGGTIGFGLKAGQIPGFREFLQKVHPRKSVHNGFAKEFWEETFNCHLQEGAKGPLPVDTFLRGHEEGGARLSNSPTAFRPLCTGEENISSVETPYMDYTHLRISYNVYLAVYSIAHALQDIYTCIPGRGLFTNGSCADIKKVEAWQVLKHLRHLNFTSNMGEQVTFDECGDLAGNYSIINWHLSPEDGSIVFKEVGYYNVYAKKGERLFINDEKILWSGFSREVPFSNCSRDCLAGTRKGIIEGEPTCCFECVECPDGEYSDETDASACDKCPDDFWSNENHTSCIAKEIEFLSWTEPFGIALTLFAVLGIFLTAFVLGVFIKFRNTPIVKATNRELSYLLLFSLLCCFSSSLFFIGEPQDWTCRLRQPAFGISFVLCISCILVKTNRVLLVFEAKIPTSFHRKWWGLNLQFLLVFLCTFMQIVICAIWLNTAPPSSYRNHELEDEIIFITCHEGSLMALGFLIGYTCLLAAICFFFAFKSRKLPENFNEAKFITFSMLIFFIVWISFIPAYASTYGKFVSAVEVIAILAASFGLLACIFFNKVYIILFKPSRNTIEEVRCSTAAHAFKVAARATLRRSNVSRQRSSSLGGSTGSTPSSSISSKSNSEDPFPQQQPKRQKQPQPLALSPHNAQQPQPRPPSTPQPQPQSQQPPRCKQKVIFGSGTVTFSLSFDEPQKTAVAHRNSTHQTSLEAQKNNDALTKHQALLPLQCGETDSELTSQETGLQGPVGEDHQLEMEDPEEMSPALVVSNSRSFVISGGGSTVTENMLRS

[2] = molecular target: T2, rat CaSR (Rattus norvegicus, UniProt P48442); conditions: CHO cells; cited from earlier work
T2 construct: host or cells: CHO cells, transient
T2 sequence (P48442 20-1079): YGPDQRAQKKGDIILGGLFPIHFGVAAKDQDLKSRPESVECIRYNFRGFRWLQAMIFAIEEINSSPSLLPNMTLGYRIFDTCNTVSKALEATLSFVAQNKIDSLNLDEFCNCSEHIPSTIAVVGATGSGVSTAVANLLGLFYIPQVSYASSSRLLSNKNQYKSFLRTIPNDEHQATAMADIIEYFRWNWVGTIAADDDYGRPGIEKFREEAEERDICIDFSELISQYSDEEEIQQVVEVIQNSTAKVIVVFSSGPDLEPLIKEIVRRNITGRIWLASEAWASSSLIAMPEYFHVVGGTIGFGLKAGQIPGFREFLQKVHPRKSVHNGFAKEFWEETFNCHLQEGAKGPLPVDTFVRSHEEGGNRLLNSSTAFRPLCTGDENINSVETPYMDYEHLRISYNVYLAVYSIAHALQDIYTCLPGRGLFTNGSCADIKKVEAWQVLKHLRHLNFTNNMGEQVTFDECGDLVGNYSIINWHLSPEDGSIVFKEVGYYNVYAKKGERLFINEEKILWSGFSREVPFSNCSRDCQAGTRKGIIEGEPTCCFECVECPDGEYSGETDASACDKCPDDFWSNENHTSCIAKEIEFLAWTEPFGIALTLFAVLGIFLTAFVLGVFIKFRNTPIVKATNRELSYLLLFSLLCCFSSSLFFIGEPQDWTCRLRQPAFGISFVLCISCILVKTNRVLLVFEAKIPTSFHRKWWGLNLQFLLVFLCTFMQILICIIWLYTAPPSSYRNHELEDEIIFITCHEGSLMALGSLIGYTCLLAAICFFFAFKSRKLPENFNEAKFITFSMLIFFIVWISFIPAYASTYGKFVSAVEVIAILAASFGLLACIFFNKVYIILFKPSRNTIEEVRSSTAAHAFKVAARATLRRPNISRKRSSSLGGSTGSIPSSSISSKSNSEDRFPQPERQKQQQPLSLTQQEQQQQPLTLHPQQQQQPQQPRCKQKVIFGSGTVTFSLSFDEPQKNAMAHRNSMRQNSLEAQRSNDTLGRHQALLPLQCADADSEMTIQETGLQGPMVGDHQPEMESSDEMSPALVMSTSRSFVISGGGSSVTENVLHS

[3] = molecular target: T3, CaSR (Homo sapiens, UniProt P41180); set-up: host or cells: HEK cells, transient; conditions: HEK cells, in the presence of 150 mM NaCl; read-out: EC50 for intracellular calcium responses; cited from earlier work
T3 sequence (P41180 20-1078): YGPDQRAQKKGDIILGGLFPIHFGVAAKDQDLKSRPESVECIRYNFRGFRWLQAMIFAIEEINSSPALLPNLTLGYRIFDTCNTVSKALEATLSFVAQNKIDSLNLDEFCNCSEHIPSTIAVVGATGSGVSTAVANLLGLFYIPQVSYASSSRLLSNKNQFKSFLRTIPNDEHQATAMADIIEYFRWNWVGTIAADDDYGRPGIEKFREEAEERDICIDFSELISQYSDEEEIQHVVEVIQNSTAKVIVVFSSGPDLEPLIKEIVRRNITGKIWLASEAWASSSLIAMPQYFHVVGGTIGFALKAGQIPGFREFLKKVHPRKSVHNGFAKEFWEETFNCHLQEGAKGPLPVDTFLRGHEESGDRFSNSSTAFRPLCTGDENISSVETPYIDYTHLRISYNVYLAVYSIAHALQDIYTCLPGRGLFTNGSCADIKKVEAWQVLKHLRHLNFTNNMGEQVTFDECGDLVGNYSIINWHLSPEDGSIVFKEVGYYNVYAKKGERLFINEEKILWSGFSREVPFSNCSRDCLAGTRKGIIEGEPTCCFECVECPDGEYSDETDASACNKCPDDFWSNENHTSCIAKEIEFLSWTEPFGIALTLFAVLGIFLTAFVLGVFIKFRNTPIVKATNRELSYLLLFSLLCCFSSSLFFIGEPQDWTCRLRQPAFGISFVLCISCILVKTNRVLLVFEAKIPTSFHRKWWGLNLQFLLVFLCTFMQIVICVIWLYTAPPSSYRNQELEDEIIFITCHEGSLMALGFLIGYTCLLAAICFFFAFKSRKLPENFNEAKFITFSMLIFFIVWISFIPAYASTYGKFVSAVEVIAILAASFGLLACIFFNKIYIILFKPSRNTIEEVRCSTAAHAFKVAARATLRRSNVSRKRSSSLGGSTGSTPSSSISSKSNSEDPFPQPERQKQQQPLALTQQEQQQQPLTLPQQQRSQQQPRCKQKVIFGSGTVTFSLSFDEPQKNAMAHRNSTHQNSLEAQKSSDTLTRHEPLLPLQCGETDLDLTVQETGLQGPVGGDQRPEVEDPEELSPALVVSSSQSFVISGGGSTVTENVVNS

[Mg+2] [Mg^2+, magnesium]
EC50 [1]: 10 mM | EC50 relative to that of Ca^2+ [2]: about twice | EC50 [3]: 15 to 20 mM
